Legend:
Type in all cases: cell-based
[1] = Single agent cytotoxicity, CellTiter-Glo; conditions: human, HepG2.2.15 cells
Protocol: (§1) Cell line: HepG2.2.15 cells are constructed and provided by WuXi AppTec. The cell culture medium is DMEM/F12 medium supplemented with 2% fetal bovine serum, 2 mM glutamine, 1×non-essential amino acids, 100 U/mL penicillin and 100 µg/mL streptomycin.
(§2) 2.1.1 On the first day, HepG2.2.15 cells were seeded into a 96-well cell culture plate at a density of 60,000 cells/well, and then the cells were cultured overnight at 5% CO2 and 37° C. On the second day, the compound 1 and the compound of formula (IIb) and the compound of formula (IIIb) were diluted and added to a 96-well plate. Each combination was a three-fold plate. The cells were cultured under 5% CO2 and 37° C. for 3 days. On the 5th day, a new culture medium containing the compound was replaced, and the supernatant was collected on the 8th day. The HBsAg in the supernatant was detected by ELISA, and the DNA in the supernatant was extracted at the same time, and the content of HBV DNA in the supernatant was detected by quantitative PCR. After collecting the cell supernatant, add CellTiter-Glo to detect cell viability.

HBsAg = assay: Single agent anti-HBV activity, HBsAg in supernatant by ELISA, HepG2.2.15 cells; conditions: Hepatitis B virus, HepG2.2.15, 192 h, read-out: HBsAg EC50
Protocol: as §1, §2

HBV = assay: Single agent anti-HBV activity, HBV DNA in supernatant by quantitative PCR, HepG2.2.15 cells; conditions: Hepatitis B virus, 192 h, day 8
Protocol: as §1, §2

HepG2.2.15 cells [2] = assay: CellTiter-Glo cytotoxicity of compound 1 / TDF combination
Protocol: 1.1 Day 1, HepG2.2.15 cells were seeded into a 96-well cell culture plate at a density of 40,000 cells/well, and then the cells were cultured overnight at 5% CO2 and 37° C.
1.2 Day 2, the compound 1 and TDF were combined with 7 different concentrations (selected about 8×, 4×, 2×, 1×, 0.5×, 0.25×, 0.125×EC50 concentration gradient) for orthogonal proportioning, and added to 96-well plate, each combination is 3 double plates, and the final concentration of DMSO is 0.5%.
1.3 Day 5, the cell supernatant was discarded, a fresh medium containing the compound was added, and the cells were cultured under 5% CO2, 37° C. for 3 days. On the 8th day, the supernatant from the cell plate treated with the compound was extracted according to the QIAamp 96 DNA Blood Kit (12) instruction.
MacSynegy software (Prichard et al., 1990) was used to process the HBV DNA copy number test data and analyze the effect parameters of compound 1 and TDF in combination. The CellTiter-Glo kit was used to detect the cytotoxicity of the compounds to HepG2.2.15 cells. According to the kit instructions, use a multifunctional microplate reader to detect the chemiluminescence intensity (RLU) of each cell well.

HepG2.2.15 cells [3] = assay: Cytotoxicity of the compounds in combination, CellTiter Glo
Protocol: as §1
2.2.1 On the first day, HepG2.2.15 cells were seeded into a 96-well cell culture plate at a density of 60,000 cells/well, and then the cells were cultured overnight at 5% CO2 and 37° C. On the second day, different concentrations of compounds were added to treat the cells. Compounds were diluted in gradients, 7×7 concentration combinations, and 3 replicate plates were tested in parallel. The compound concentration tested for joint activity is based on the EC50 value of each compound. The 7 concentration gradients are approximately: 2×, 1×, ½×, ¼×, ⅛×, 1/16× and 1/32×EC50. The compound concentration of the combined activity test experiment is shown in Table 8, and the combination drug arrangement is shown in Table 9. On the 5th day, replace the fresh culture medium containing the compound. On the 8th day, the culture supernatant was collected, DNA was extracted, and the content of HBV DNA was detected by quantitative PCR. At the same time, CellTiter Glo reagent was used to detect cell viability and MacSynergy software was used to analyze the combined effect of the two drugs.

Cc1cc2n(c1)S(=O)(=O)c1ccc(C(=O)NCC[C@H]3COCCO3)cc1NC2=O [Compound 1]
CC50 at 6 days [1]: > 1000 nM | EC50 (HBsAg): > 1000 nM | EC50 (HBV): 6.03 nM | average cell viability percentage (HepG2.2.15 cells [2]; Compound 1 0.533 nM + TDF 0 nM): 121.5% | average cell viability percentage (HepG2.2.15 cells [2]; Compound 1 1.065 nM + TDF 0 nM): 128.1% | average cell viability percentage (HepG2.2.15 cells [2]; Compound 1 2.131 nM + TDF 0 nM): 124.5% | average cell viability percentage (HepG2.2.15 cells [2]; Compound 1 4.261 nM + TDF 0 nM): 125.1% | average cell viability percentage (HepG2.2.15 cells [2]; Compound 1 8.522 nM + TDF 0 nM): 124.3% | average cell viability percentage (HepG2.2.15 cells [2]; Compound 1 17.04 nM + TDF 0 nM): 123.1% | average cell viability percentage (HepG2.2.15 cells [2]; Compound 1 34.09 nM + TDF 0 nM): 115.2% | average cell viability percentage (HepG2.2.15 cells [3]; Compound 1 0.1875 nM + formula (IIIb) 0 nM): 110.07% | average cell viability percentage (HepG2.2.15 cells [3]; Compound 1 0.1875 nM + formula (IIb) 0 nM): 109.29% | average cell viability percentage (HepG2.2.15 cells [3]; Compound 1 0.375 nM + formula (IIIb) 0 nM): 112.42% | average cell viability percentage (HepG2.2.15 cells [3]; Compound 1 0.375 nM + formula (IIb) 0 nM): 109.88% | average cell viability percentage (HepG2.2.15 cells [3]; Compound 1 0.75 nM + formula (IIIb) 0 nM): 111.36% | average cell viability percentage (HepG2.2.15 cells [3]; Compound 1 0.75 nM + formula (IIb) 0 nM): 106.91% | average cell viability percentage (HepG2.2.15 cells [3]; Compound 1 1.5 nM + formula (IIIb) 0 nM): 111.96% | average cell viability percentage (HepG2.2.15 cells [3]; Compound 1 1.5 nM + formula (IIb) 0 nM): 105.37% | average cell viability percentage (HepG2.2.15 cells [3]; Compound 1 3 nM + formula (IIIb) 0 nM): 112.58% | average cell viability percentage (HepG2.2.15 cells [3]; Compound 1 3 nM + formula (IIb) 0 nM): 104.39% | average cell viability percentage (HepG2.2.15 cells [3]; Compound 1 6 nM + formula (IIIb) 0 nM): 112.45% | average cell viability percentage (HepG2.2.15 cells [3]; Compound 1 6 nM + formula (IIb) 0 nM): 103.50% | average cell viability percentage (HepG2.2.15 cells [3]; Compound 1 12 nM + formula (IIIb) 0 nM): 111.17% | average cell viability percentage (HepG2.2.15 cells [3]; Compound 1 12 nM + formula (IIb) 0 nM): 102.08%

— patent US12569500B2, “Combination comprising tricycle compound and use thereof in preparation of medicament for treating HBV” (FUJIAN AKEYLINK BIOTECHNOLOGY CO., LTD., priority 2020, dated 2026)
